Ends that are not written are not given here.
What was measured:
[1] = Degradation of ANA-TA9 in the rat nasal cavity (nasal perfusion); type: in vivo; conditions: 15 mL PBS at 10 μg/mL, 120 min, LC/MS, mean of three experiments
Protocol: Polyethylene tubing was inserted into the rat esophagus and trachea according to the method of Hirai et al.. Briefly, under anesthesia with the anesthetic mixture described in Section 2.3.2, the trachea was cannulated with polyethylene tubing, and another tube was inserted from the esophagus to the posterior part of the nasal cavity. The nasopalatine was closed with surgical adhesive. A solution of ANA-TA9 (15 mL PBS at 10 μg/mL) was perfused from the esophagus through the nasal cavity using a peristaltic pump (SJ-1211-H; ATTO, Tokyo, Japan). The perfusing solution of ANA-TA9 was sampled at predetermined times. The ANA-TA9 concentration in the perfusate was measured by liquid chromatography-mass spectrometry (LC/MS) after the same pretreatment as that of the plasma described in Section 2.4.2.

[2] = In vitro stability in the whole blood; type: in vitro ADME, rat
Protocol: After the anesthetization of rats with an i.p. application of the anesthetic mixture, the cerebrospinal fluid (CSF) was collected by cisternal puncture, followed by the collection of whole blood from the polyethylene cannula inserted into the right femoral artery. The blood was heparinized and centrifuged at 15,000 rpm for 10 min at 4 °C, and the supernatant was collected as plasma.
ANA-TA9 was dissolved in PBS at a concentration of 0.1 mg/mL or 1 mg/mL. Immediately before the incubation, 5 μL or 10 μL of the ANA-TA9 solution was added to 45 μL or 90 μL of CSF or plasma, respectively. Similarly, 10 μL of the ANA-TA9 solution was added to 90 μL of whole blood. At predetermined times after the incubation at 37 °C, the samples were cooled by placing them on ice. Methanol (1 mL) was added to the plasma and whole blood for deproteinization. The mixtures were then vortexed and centrifuged at 15,000 rpm for 5 min at 4 °C. The supernatant was transferred to tubes and evaporated to dryness. The residue was reconstituted with 100 μL of the mobile phase of LC/MS mentioned below. The concentrations of ANA-TA9 in the plasma and whole blood were measured by LC/MS. The ANA-TA9 concentrations were measured in the CSF samples by LC/MS without any treatments.
Chromatographic separation was performed using a C18 analytical column (TSKgel ODS 100V, 3 μm, 2.0 mm × 100 mm; TOSOH, Tokyo, Japan). The mobile phase was acetonitrile/0.1% acetic acid (10/90), and the flow rate was 0.2 mL/min. ANA-TA9 eluting from the column was detected with mass spectrometry under the positive mode. Nitrogen gas was used for nebulization at a flow rate of 1.5 L/min. Other conditions (temperature and voltage) were set as the default. The calibration curves of ANA-TA9 in the plasma and the brain were determined.

[3] = Storage stability of ANA-TA9 at −40 °C (preliminary study); type: physicochemical; conditions: storage at −40 °C (plasma samples)
Protocol: The rats were anesthetized through i.p. administration of a mixture of medetomidine (0.15 mg/kg body weight), midazolam (2 mg/kg body weight), and butorphanol (2.5 mg/kg body weight). The right femoral artery was cannulated with polyethylene tubing. ANA-TA9 was injected into the left femoral vein of 3 rats at a dose of 2 mg (200 μL of a 10 mg/mL PBS solution). Those 3 rats nasally received the same dose of ANA-TA9 (20 μL of a 100 mg/mL PBS solution) under anesthesia. For nasal administration, a micropipette was used. After i.n. administration, the animals were kept conscious in a rat cage (KN-326-III; Natsume, Tokyo, Japan) throughout the experiment after recovery from anesthesia. The PBS solution of ANA-TA9 (12 mg/mL) was infused intravenously for 10 min at a 25 µL/min flow rate. The infused dose was 3 mg/rat. At the appropriate time intervals after administration, blood samples were taken, heparinized, and immediately cooled down on ice, followed by centrifugation at 15,000 rpm for 5 min to obtain the plasma. The plasma samples were stored at −40 °C until the assay. In the preliminary study, it was confirmed that ANA-TA9 stored at −40 °C is stable for at least 2 weeks.

SKGQAYRMI [ANA-TA9]
concentration in the nasal perfusate, % of the initial concentration [1]: 54%
initial concentration in the whole blood ([2]; rat whole blood (heparinized), 10 μL ANA-TA9 solution added to 90 μL, 37 °C, time 0, LC/MS, three experiments): 80 µg/mL
concentration of ANA-TA9 in the whole blood 5 min after the start of the incubation ([2]; rat whole blood, 10 μL ANA-TA9 solution added to 90 μL, 37 °C, 5 min, LC/MS, three experiments): 20000 ng/mL
initial concentration in the whole blood, % of the expected value ([2]; rat whole blood, time 0, LC/MS): 80%
time for which ANA-TA9 stored at −40 °C is stable [3]: at least 2 weeks

— PMC8538057, “Direct Delivery of ANA-TA9, a Peptide Capable of Aβ Hydrolysis, to the Brain by Intranasal Administration” (Pharmaceutics, 2021)
